Measured values from ChEMBL document CHEMBL1275486, “Kinetic characterization of VIM-7, a divergent member of the VIM metallo-beta-lactamase family” (Antimicrob Agents Chemother, 2008).

Columns and labels:
Escherichia coli [1] = assay: Activity of Escherichia coli beta-lactamase VIM-1 by spectrophotometry
Escherichia coli [2] = assay: Ratio of Kcat to Km for Escherichia coli beta-lactamase VIM-1 by spectrophotometry

Row | SMILES | Km (Escherichia coli [1]) [µM] | kcat (Escherichia coli [1]) [s⁻¹] | kcat/Km (Escherichia coli [2]) [µM⁻¹ s⁻¹]
1 | CC(=O)OCC1=C(C(=O)O)N2C(=O)[C@@H](NC(=O)Cc3cccs3)[C@H]2SC1 | 55 | 280 | 5.1
2 | CC(C)(O/N=C(\C(=O)N[C@@H]1C(=O)N2C(C(=O)[O-])=C(C[n+]3ccccc3)CS[C@H]12)c1csc(N)n1)C(=O)O | 800 | 60 | 0.075
3 | CC1(C)S[C@@H]2[C@H](NC(=O)C(C(=O)O)c3ccccc3)C(=O)N2[C@H]1C(=O)O (some centres undefined) | 75 | 170 | 2.3
4 | CC1(C)S[C@@H]2[C@H](NC(=O)Cc3ccccc3)C(=O)N2[C@H]1C(=O)O | 840 |  | 0.036
5 | CC1(C)S[C@@H]2[C@H](NC(=O)[C@H](N)c3ccccc3)C(=O)N2[C@H]1C(=O)O | 920 | 35 | 0.038
6 | CC1(C)S[C@@H]2[C@H](NC(=O)[C@H](NC(=O)N3CCNC3=O)c3ccccc3)C(=O)N2[C@H]1C(=O)O | 120 | 1500 | 12.5
7 | CC1(C)[C@H](C(=O)O)N2C(=O)C[C@H]2S1(=O)=O | 200 | 10 | 0.05
8 | CCN1CCN(C(=O)N[C@@H](C(=O)N[C@@H]2C(=O)N3[C@@H]2SC(C)(C)[C@@H]3C(=O)O)c2ccccc2)C(=O)C1=O | 3500 | 1900 | 0.54
9 | CO/N=C(\C(=O)N[C@@H]1C(=O)N2C(C(=O)O)=C(COC(C)=O)CS[C@H]12)c1csc(N)n1 | 250 | 170 | 0.68
10 | CO/N=C(\C(=O)N[C@@H]1C(=O)N2C(C(=O)O)=C(COC(N)=O)CS[C@H]12)c1ccco1 | 42 | 325 | 7.7
